Source: patent US20140155376A1, “PYRROLOPYRAZINE KINASE INHIBITORS” (Hoffmann-La Roche Inc., priority 2010, published 2014)

The compounds below were run against T1, JAK3 (recombinant human kinase domain; h-jak3(810-1124)) (Homo sapiens, UniProt P52333) (assay: Determination of IC50 of Janus Kinase (JAK) inhibition: JAK3, radioactive end-point assay with 33P-ATP). Conditions: JAK3 kinase domain; ATP 1.5 uM, peptide 50 uM, 20 minutes, room temperature, 10% DMSO; read-out: Ic50 h-jak3(810-1124)-sf9-c:no additive.
T1 construct: h-jak3(810- 1124)-sf9-c; made in house; host or cells: Sf9 insect cells
T1 sequence (P52333 810-1124): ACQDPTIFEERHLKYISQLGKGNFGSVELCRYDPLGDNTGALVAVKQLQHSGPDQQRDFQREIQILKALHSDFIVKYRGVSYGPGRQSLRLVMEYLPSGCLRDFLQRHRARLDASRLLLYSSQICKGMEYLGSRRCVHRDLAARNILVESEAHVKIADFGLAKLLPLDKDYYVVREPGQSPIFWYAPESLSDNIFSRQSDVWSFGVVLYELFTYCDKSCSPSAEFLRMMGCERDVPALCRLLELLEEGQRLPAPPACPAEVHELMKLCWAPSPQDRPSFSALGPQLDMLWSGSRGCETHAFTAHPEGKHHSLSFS
Assay type: biochemical

Point of comparison: `CC(C)NC(=O)c1c[nH]c2ncc(Oc3cccc(C(F)(F)F)c3)nc12` [Example I-235, 2-(3-Trifluoromethyl-phenoxy)-5H-pyrrolo[2,3-b]pyrazine-7-carboxylic acid isopropylamide], IC50 784 nM. Against it:
- C[C@H](NC(=O)c1c[nH]c2ncc(C3CC3)nc12)c1cc[nH]n1 [Example I-37, 2-Cyclopropyl-5H-pyrrolo[2,3-b]pyrazine-7-carboxylic acid [(S)-1-(1H-pyrazol-3-yl)-ethyl]-amide] — 36-fold lower, 22 nM
- C[C@@H](NC(=O)c1c[nH]c2ncc(C3CC3)nc12)[C@](C)(O)CC#N [Example I-91, 2-Cyclopropyl-5H-pyrrolo[2,3-b]pyrazine-7-carboxylic acid ((1R,2R)-3-cyano-2-hydroxy-1,2-dimethyl-propyl)-amide] — 20-fold lower, 38.7 nM
- CC(C)(CO)CNC(=O)c1c[nH]c2ncc(N3CCCC3)nc12 [Example I-10, 2-Pyrrolidin-1-yl-5H-pyrrolo[2,3-b]pyrazine-7-carboxylic acid (3-hydroxy-2,2-dimethyl-propyl)-amide] — 23-fold lower, 34.3 nM
- C[C@H](NC(=O)c1c[nH]c2ncc(-c3ccc(C(=O)NCC#N)s3)nc12)C(C)(C)C [Example I-172, 2-[5-(Cyanomethyl-carbamoyl)-thiophen-2-yl]-5H-pyrrolo[2,3-b]pyrazine-7-carboxylic acid ((S)-1,2,2-trimethyl-propyl)-amide] — 5600-fold lower, 0.14 nM
- CC(NC(=O)c1c[nH]c2ncc(C3CC3)nc12)c1ccccn1 (centres unmarked) [Example I-70, 2-Cyclopropyl-5H-pyrrolo[2,3-b]pyrazine-7-carboxylic acid (1-pyridin-2-yl-ethyl)-amide] — 9-fold lower, 87 nM
- CC(=O)N[C@@H]1CCc2cc(Oc3cnc4[nH]cc(C(=O)N[C@@H](C)C(C)(C)C)c4n3)ccc21 [Example I-291, 2-((R)-1-Acetylamino-indan-5-yloxy)-5H-pyrrolo[2,3-b]pyrazine-7-carboxylic acid ((S)-1,2,2-trimethyl-propyl)-amide] — 21-fold lower, 37 nM
- C[C@@H](NC(=O)c1c[nH]c2ncc(Oc3ccccc3)nc12)C1CCCCC1 [Example I-129, 2-Phenoxy-5H-pyrrolo[2,3-b]pyrazine-7-carboxylic acid ((R)-1-cyclohexyl-ethyl)-amide] — 3.5-fold lower, 222 nM
- CC(O)CC(C)(C)NC(=O)c1c[nH]c2ncc(C3CC3)nc12 (centres unmarked) [Example I-12, 2-Cyclopropyl-5H-pyrrolo[2,3-b]pyrazine-7-carboxylic acid (3-hydroxy-1,1-dimethyl-butyl)-amide] — 4.1-fold lower, 192 nM
- Cc1cccc(Oc2cnc3[nH]cc(C(=O)NC(C)C)c3n2)n1 [Example I-278, 2-(6-Methyl-pyridin-2-yloxy)-5H-pyrrolo[2,3-b]pyrazine-7-carboxylic acid isopropylamide] — 1.6-fold lower, 491 nM
- CC[C@](C)(O)[C@H](C)NC(=O)c1c[nH]c2ncc(C3CC3)nc12 [Example I-31, 2-Cyclopropyl-5H-pyrrolo[2,3-b]pyrazine-7-carboxylic acid ((1S,2S)-2-hydroxy-1,2-dimethyl-butyl)-amide] — 20-fold lower, 39.5 nM
- C[C@H](NC(=O)c1c[nH]c2ncc(C3CCCCC3)nc12)C(C)(C)O [Example I-11, 2-Cyclohexyl-5H-pyrrolo[2,3-b]pyrazine-7-carboxylic acid ((S)-2-hydroxy-1,2-dimethyl-propyl)-amide] — 5.2-fold lower, 152 nM
- CC(C)(CCO)NC(=O)c1c[nH]c2ncc(C3CC3)nc12 [Example I-42, 2-Cyclopropyl-5H-pyrrolo[2,3-b]pyrazine-7-carboxylic acid (3-hydroxy-1,1-dimethyl-propyl)-amide] — 6-fold lower, 131 nM
- CC(=O)N[C@@H]1CCc2ccc(Oc3cnc4[nH]cc(C(=O)NC(C)C#N)c4n3)cc21 (stereo partly drawn) [Example I-298, 2-((R)-3-Acetylamino-indan-5-yloxy)-5H-pyrrolo[2,3-b]pyrazine-7-carboxylic acid (cyano-methyl-methyl)-amide] — 2-fold lower, 387 nM
- Cc1ncccc1Oc1cnc2[nH]cc(C(=O)NC(C)C)c2n1 [Example I-280, 2-(2-Methyl-pyridin-3-yloxy)-5H-pyrrolo[2,3-b]pyrazine-7-carboxylic acid isopropylamide] — 5.1-fold higher, 3980 nM
- C[C@H](NC(=O)c1c[nH]c2ncc(-c3ccc(C(=O)N4CCC4)s3)nc12)C(C)(C)C [Example I-180, 2-[5-(Azetidine-1-carbonyl)-thiophen-2-yl]-5H-pyrrolo[2,3-b]pyrazine-7-carboxylic acid ((S)-1,2,2-trimethyl-propyl)-amide] — 2400-fold lower, 0.32 nM
- CCNC(=O)c1c[nH]c2ncc(Oc3ccc(C#N)cc3)nc12 [Example I-267, 2-(4-Cyano-phenoxy)-5H-pyrrolo[2,3-b]pyrazine-7-carboxylic acid ethylamide] — 3-fold higher, 2360 nM
- CC(C)[C@H](NC(=O)c1c[nH]c2ncc(C3CC3)nc12)C(C)(C)O [Example I-24, 2-Cyclopropyl-5H-pyrrolo[2,3-b]pyrazine-7-carboxylic acid ((S)-2-hydroxy-1-isopropyl-2-methyl-propyl)-amide] — 4.4-fold lower, 180 nM
- CCC[C@@](C)(O)[C@@H](C)NC(=O)c1c[nH]c2ncc(C3CC3)nc12 [Example I-84, 2-Cyclopropyl-5H-pyrrolo[2,3-b]pyrazine-7-carboxylic acid ((1R,2R)-2-hydroxy-1,2-dimethyl-pentyl)-amide] — 12-fold lower, 65.1 nM
- C[C@H](NC(=O)c1c[nH]c2ncc(-c3ccc(C(=O)N4CCC(C)(O)CC4)s3)nc12)C(C)(C)C [Example I-175, 2-[5-(4-Hydroxy-4-methyl-piperidine-1-carbonyl)-thiophen-2-yl]-5H-pyrrolo[2,3-b]pyrazine-7-carboxylic acid ((S)-1,2,2-trimethyl-propyl)-amide] — 7800-fold lower, 0.1 nM
- CC(C)NC(=O)c1c[nH]c2ncc(Oc3ccc4c(c3)[C@@H](O)CC4)nc12 [Example I-304, 2-((S)-3-Hydroxy-indan-5-yloxy)-5H-pyrrolo[2,3-b]pyrazine-7-carboxylic acid isopropylamide] — 5.1-fold lower, 155 nM
- CC(NC(=O)c1c[nH]c2ncc(C3CC3)nc12)C1CCCC1 (centres unmarked) [Example I-95, 2-Cyclopropyl-5H-pyrrolo[2,3-b]pyrazine-7-carboxylic acid (1-cyclopentyl-ethyl)-amide] — 78-fold lower, 9.99 nM
- CC(C)NC(=O)c1c[nH]c2ncc(Oc3ccc4c(c3)C(O)CC4)nc12 (centres unmarked) [Example I-293, 2-(3-Hydroxy-indan-5-yloxy)-5H-pyrrolo[2,3-b]pyrazine-7-carboxylic acid isopropylamide] — 4.8-fold lower, 162 nM
- CC[C@@H](CO)NC(=O)c1c[nH]c2ncc(C3CC3)nc12 [Example I-40, 2-Cyclopropyl-5H-pyrrolo[2,3-b]pyrazine-7-carboxylic acid ((S)-1-hydroxymethyl-propyl)-amide] — 6.1-fold lower, 128 nM
- C[C@@H](NC(=O)c1c[nH]c2ncc(Oc3ccccc3)nc12)C(C)(C)O [Example I-116, 2-Phenoxy-5H-pyrrolo[2,3-b]pyrazine-7-carboxylic acid ((R)-2-hydroxy-1,2-dimethyl-propyl)-amide] — within 1.5-fold, 682 nM
- C[C@H](NC(=O)c1c[nH]c2ncc(C3=CCCCC3)nc12)C(C)(C)O [Example I-7, 2-Cyclohex-1-enyl-5H-pyrrolo[2,3-b]pyrazine-7-carboxylic acid ((S)-2-hydroxy-1,2-dimethyl-propyl)-amide] — 170-fold lower, 4.51 nM
- CC(C)(C#N)C(NC(=O)c1c[nH]c2ncc(C3CC3)nc12)C1CC1 (centres unmarked) [Example I-81, 2-Cyclopropyl-5H-pyrrolo[2,3-b]pyrazine-7-carboxylic acid (2-cyano-1-cyclopropyl-2,2-dimethyl-ethyl)-amide] — 49-fold lower, 16 nM
- C[C@H](NC(=O)c1c[nH]c2ncc(C3CC3)nc12)[C@@](C)(O)CC1CC1 [Example I-38, 2-Cyclopropyl-5H-pyrrolo[2,3-b]pyrazine-7-carboxylic acid ((1S,2S)-3-cyclopropyl-2-hydroxy-1,2-dimethyl-propyl)-amide] — 6.8-fold lower, 115 nM
- C[C@H](NC(=O)c1c[nH]c2ncc(-c3ccc(C(=O)N4CCS(=O)(=O)CC4)s3)nc12)C(C)(C)C [Example I-213, 2-[5-(1,1-Dioxo-1λ^6-thiomorpholine-4-carbonyl)-thiophen-2-yl]-5H-pyrrolo[2,3-b]pyrazine-7-carboxylic acid ((S)-1,2,2-trimethyl-propyl)-amide] — 7100-fold lower, 0.11 nM
- C[C@H](NC(=O)c1c[nH]c2ncc(C3CC3)nc12)C(C)(C)C(F)(F)F [Example I-54, 2-Cyclopropyl-5H-pyrrolo[2,3-b]pyrazine-7-carboxylic acid ((S)-3,3,3-trifluoro-1,2,2-trimethyl-propyl)-amide] — 140-fold lower, 5.46 nM
- C[C@H](NC(=O)c1c[nH]c2ncc(-c3ccc(C(=O)NCc4cccnc4)s3)nc12)C(C)(C)C [Example I-164, 2-{5-[(Pyridin-3-ylmethyl)-carbamoyl]-thiophen-2-yl}-5H-pyrrolo[2,3-b]pyrazine-7-carboxylic acid ((S)-1,2,2-trimethyl-propyl)-amide] — 2400-fold lower, 0.32 nM
- CC(C)NC(=O)c1c[nH]c2ncc(Oc3ccc4c(c3)[C@@H](N)CC4)nc12 [Example I-289, 2-((S)-3-Amino-indan-5-yloxy)-5H-pyrrolo[2,3-b]pyrazine-7-carboxylic acid isopropylamide] — within 1.5-fold, 533 nM
- C[C@H](NC(=O)c1c[nH]c2ncc(-c3ccc(C(=O)NCc4ccc(F)cc4)s3)nc12)C(C)(C)C [Example I-185, 2-[5-(4-Fluoro-benzylcarbamoyl)-thiophen-2-yl]-5H-pyrrolo[2,3-b]pyrazine-7-carboxylic acid ((S)-1,2,2-trimethyl-propyl)-amide] — 2400-fold lower, 0.32 nM
- C=C(C)c1cnc2[nH]cc(C(=O)N[C@@H](C)C(C)(C)O)c2n1 [Example I-3, 2-Isopropenyl-5H-pyrrolo[2,3-b]pyrazine-7-carboxylic acid ((S)-2-hydroxy-1,2-dimethyl-propyl)-amide] — 64-fold lower, 12.2 nM
- CC(=O)NC1CCN(C(=O)c2ccc(-c3cnc4[nH]cc(C(=O)N[C@@H](C)C(C)(C)C)c4n3)s2)CC1 [Example I-183, 2-[5-[4-Acetylamino-piperidine-1-carbonyl)-thiophen-2-yl]-5H-pyrrolo[2,3-b]pyrazine-7-carboxylic acid ((S)-1,2,2-trimethyl-propyl)-amide] — 2400-fold lower, 0.32 nM
